In patent US10544120B2, “Biaryl kinase inhibitors” (BRISTOL-MYERS SQUIBB COMPANY, priority 2015, dated 2020):

target: GST-Xa-hAAK1 (Homo sapiens (Human), UniProt Q2M2I8); test: AAK1 Kinase Assay; type: biochemical; conditions: bacterially expressed GST-Xa-hAAK1 3.5 nM; ATP 22 μM; fluoresceinated peptide 1.5 μM; 3 hours at room temperature; Caliper LabChip 3000
Protocol: The assays were performed in U-bottom 384-well plates. […] The reactions were initiated by the combination of bacterially expressed, GST-Xa-hAAK1 with substrates and test compounds. The reactions were incubated at room temperature for 3 hours and terminated by adding 60 μl of 35 mM EDTA buffer to each sample. The reactions were analyzed on the Caliper LabChip 3000 (Caliper, Hopkinton, Mass.) by electrophoretic separation of the fluorescent substrate and phosphorylated product. […] Compounds were dissolved at 10 mM in dimethylsulfoxide (DMSO) and evaluated at eleven concentrations. IC50 values were derived by non-linear regression analysis.

Sequence of GST-Xa-hAAK1 (Q2M2I8 whole entry): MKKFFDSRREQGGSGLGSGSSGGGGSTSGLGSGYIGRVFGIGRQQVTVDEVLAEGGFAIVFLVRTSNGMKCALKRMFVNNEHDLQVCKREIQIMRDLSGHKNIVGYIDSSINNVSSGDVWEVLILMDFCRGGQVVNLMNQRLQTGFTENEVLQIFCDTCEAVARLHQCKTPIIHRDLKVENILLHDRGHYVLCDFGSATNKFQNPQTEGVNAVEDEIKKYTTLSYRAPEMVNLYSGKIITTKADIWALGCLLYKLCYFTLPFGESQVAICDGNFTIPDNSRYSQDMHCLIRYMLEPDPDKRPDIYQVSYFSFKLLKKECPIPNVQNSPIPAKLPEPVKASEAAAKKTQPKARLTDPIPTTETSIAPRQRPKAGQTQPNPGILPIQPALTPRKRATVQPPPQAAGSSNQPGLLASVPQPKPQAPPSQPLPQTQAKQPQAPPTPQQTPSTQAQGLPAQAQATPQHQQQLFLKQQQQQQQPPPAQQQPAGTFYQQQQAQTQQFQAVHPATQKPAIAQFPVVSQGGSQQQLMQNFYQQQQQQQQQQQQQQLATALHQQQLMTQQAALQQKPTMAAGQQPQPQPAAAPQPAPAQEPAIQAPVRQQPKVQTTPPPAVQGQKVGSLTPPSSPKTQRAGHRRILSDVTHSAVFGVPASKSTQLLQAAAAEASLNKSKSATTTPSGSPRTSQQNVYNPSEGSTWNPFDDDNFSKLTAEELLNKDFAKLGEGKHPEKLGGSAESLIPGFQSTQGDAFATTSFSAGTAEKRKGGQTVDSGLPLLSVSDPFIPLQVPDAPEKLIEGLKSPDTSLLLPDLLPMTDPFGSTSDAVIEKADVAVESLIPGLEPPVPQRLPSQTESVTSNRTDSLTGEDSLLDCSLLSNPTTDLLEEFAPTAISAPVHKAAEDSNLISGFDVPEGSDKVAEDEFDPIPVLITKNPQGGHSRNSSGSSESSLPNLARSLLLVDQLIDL

| SMILES | IC50 [nM] |
| --- | --- |
| Cc1cc2c(-c3ccc(OC[C@@](C)(N)CC(C)C)c(C(F)(F)F)c3)ccnc2[nH]1 [Example 327, (S)-2,4-dimethyl-1-(4-(2-methyl-1H-pyrrolo[2,3-b]pyridin-4-yl)-2-(trifluoromethyl)phenoxy)pentan-2-amine] | 0.8 |
| Cc1cc2c(-c3ccc(OC[C@@](C)(N)CC(C)C)c(C#N)c3)ccnc2[nH]1 [Example 328, (S)-2-((2-amino-2,4-dimethylpentyl)oxy)-5-(2-methyl-1H-pyrrolo[2,3-b]pyridin-4-yl)benzonitrile] | 0.4 |
| Cc1nccc(-c2ccc(OC[C@@](C)(N)CC(C)C)c(C)c2)n1 [Example 329, (S)-2,4-dimethyl-1-(2-methyl-4-(2-methylpyrimidin-4-yl)phenoxy)pentan-2-amine] | 2.4 |
| Cc1cc(-c2ccnc(C(F)(F)F)n2)ccc1OC[C@@](C)(N)CC(C)C [Example 330, (S)-2,4-dimethyl-1-(2-methyl-4-(2-(trifluoromethyl)pyrimidin-4-yl)phenoxy)pentan-2-amine] | 7.3 |
| CC(C)C[C@](C)(N)COc1ccc(-c2ccnc(C(F)(F)F)n2)cc1F [Example 331, (S)-1-(2-fluoro-4-(2-(trifluoromethyl)pyrimidin-4-yl)phenoxy)-2,4-dimethylpentan-2-amine] | 45 |
| CC(C)C[C@](C)(N)COc1ccc(-c2ccnc(C(C)C)n2)cc1F [Example 337, (S)-1-(2-fluoro-4-(2-isopropylpyrimidin-4-yl)phenoxy)-2,4-dimethylpentan-2-amine] | 886 |
| Cc1nc(-c2cc(N)ncn2)ccc1OC[C@@](C)(N)CC(C)C [Example 343, (S)-6-(5-((2-amino-2,4-dimethylpentyl)oxy)-6-methylpyridin-2-yl)pyrimidin-4-amine] | 19 |
| Cc1cc(-c2ccnc(F)c2)ncc1OC[C@@](C)(N)CC(C)C [Example 344, (S)-1-((2′-fluoro-4-methyl-[2,4′-bipyridin]-5-yl)oxy)-2,4-dimethylpentan-2-amine] | 26 |
| Cc1nc(-c2ccnc(C(F)(F)F)c2)ccc1OC[C@@](C)(N)CC(C)C [Example 348, (S)-2,4-dimethyl-1-((6-methyl-2′-(trifluoromethyl)-[2,4′-bipyridin]-5-yl)oxy)pentan-2-amine] | 512 |
| Cc1cc(-c2ccnc(C(F)(F)F)c2)ncc1OC[C@@](C)(N)CC(C)C [Example 349, (S)-2,4-dimethyl-1-((4-methyl-2′-(trifluoromethyl)-[2,4′-bipyridin]-5-yl)oxy)pentan-2-amine] | 70 |
| Cc1cc(-c2ccc(OC[C@@](C)(N)CC(C)C)c(C(F)F)c2)ncn1 [Example 350, (S)-1-(2-(difluoromethyl)-4-(6-methylpyrimidin-4-yl)phenoxy)-2,4-dimethylpentan-2-amine] | 39 |
| Cc1nccc(-c2ccc(OC[C@@](C)(N)CC(C)C)c(CF)c2)n1 [Example 352, (S)-1-(2-(fluoromethyl)-4-(2-methylpyrimidin-4-yl)phenoxy)-2,4-dimethylpentan-2-amine] | 1.4 |
| Cc1nccc(-c2ccc(OC[C@](C)(N)CC(C)C)c(C)n2)n1 [Example 354, (R)-2,4-dimethyl-1-((2-methyl-6-(2-methylpyrimidin-4-yl)pyridin-3-yl)oxy)pentan-2-amine] | 321 |
| CC(C)C[C@](C)(N)COc1ccc(-c2ccnc(CF)c2)nc1C(F)F [Example 355, (S)-1-((6-(difluoromethyl)-2′-(fluoromethyl)-[2,4′-bipyridin]-5-yl)oxy)-2,4-dimethylpentan-2-amine] | 1.1 |
| CC(C)C[C@](C)(N)COc1ccc(-c2ccnc(C(F)(F)F)c2)nc1C(F)F [Example 356, (S)-1-((6-(difluoromethyl)-2′-(trifluoromethyl)-[2,4′-bipyridin]-5-yl)oxy)-2,4-dimethylpentan-2-amine] | 82 |
| Cc1cc(-c2ccnc(Cl)n2)ccc1OC[C@@](C)(N)CC(C)C [Example 367, (S)-1-(4-(2-chloropyrimidin-4-yl)-2-methylphenoxy)-2,4-dimethylpentan-2-amine] | 4.5 |
| CC(C)C[C@](C)(N)COc1ccc(-c2ccnc(Cl)n2)cc1C(F)(F)F [Example 370, (S)-1-(4-(2-chloropyrimidin-4-yl)-2-(trifluoromethyl)phenoxy)-2,4-dimethylpentan-2-amine] | 1.4 |

More lines, now with the values ahead:

| IC50 [nM] | SMILES |
| --- | --- |
| 236 | COC(=O)Nc1nccc(-c2cnc(OC[C@](C)(N)CC(C)C)c(C)c2)n1 [Example 372, (R)-methyl (4-(6-((2-amino-2,4-dimethylpentyl)oxy)-5-methylpyridin-3-yl)pyrimidin-2-yl)carbamate] |
| 684 | COC(=O)Nc1nccc(-c2cnc(OC[C@](C)(N)CC(C)C)c(F)c2)n1 [Example 373, (R)-methyl (4-(6-((2-amino-2,4-dimethylpentyl)oxy)-5-fluoropyridin-3-yl)pyrimidin-2-yl)carbamate] |
| 339 | COC(=O)Nc1nccc(-c2cnc(OC[C@@](C)(N)CC(C)C)cc2C)n1 [Example 374, (S)-methyl (4-(6-((2-amino-2,4-dimethylpentyl)oxy)-4-methylpyridin-3-yl)pyrimidin-2-yl)carbamate] |
| 2.6 | COC(=O)Nc1nccc(-c2cnc(OC[C@@](C)(N)CC(C)C)c(Cl)c2)n1 [Example 375, (S)-methyl (4-(6-((2-amino-2,4-dimethylpentyl)oxy)-5-chloropyridin-3-yl)pyrimidin-2-yl)carbamate] |
| 1.4 | CC(C)C[C@](C)(N)COc1ccc(-c2ccnc(Cl)n2)cc1C#N [Example 378, (S)-2-((2-amino-2,4-dimethylpentyl)oxy)-5-(2-chloropyrimidin-4-yl)benzonitrile] |
| 35 | COC(=O)Nc1nccc(-c2cnc(OC[C@@](C)(N)CC(C)C)c(C)c2)n1 [Example 379, (S)-methyl (4-(6-((2-amino-2,4-dimethylpentyl)oxy)-5-methylpyridin-3-yl)pyrimidin-2-yl)carbamate] |
| 2 | COc1cc(-c2ccc(OC[C@@](C)(N)CC(C)C)c(C(F)F)c2)ccn1 [Example 383, (S)-1-(2-(difluoromethyl)-4-(2-methoxypyridin-4-yl)phenoxy)-2,4-dimethylpentan-2-amine] |
| 46 | Cc1cc(-c2ccc(OC[C@@](C)(N)CC(C)C)c(C)c2)ncn1 [Example 384, (S)-2,4-dimethyl-1-(2-methyl-4-(6-methylpyrimidin-4-yl)phenoxy)pentan-2-amine] |
| 50 | COc1cc(-c2cnc(OC[C@@](C)(N)CC(C)C)c(C#N)c2)ccn1 [Example 385, (S)-6-((2-amino-2,4-dimethylpentyl)oxy)-2′-methoxy-[3,4′-bipyridine]-5-carbonitrile] |
| 13 | COc1cc(-c2ccc(OC[C@@](C)(N)CC(C)C)c(C)c2)ccn1 [Example 386, (S)-1-(4-(2-methoxypyridin-4-yl)-2-methylphenoxy)-2,4-dimethylpentan-2-amine] |
| 1010 | Cc1cc(-c2ccc(OC[C@@](C)(N)CC(C)C)c(CF)n2)ncn1 [Example 387, (S)-1-((2-(fluoromethyl)-6-(6-methylpyrimidin-4-yl)pyridin-3-yl)oxy)-2,4-dimethylpentan-2-amine] |
| 4.7 | COC(=O)Nc1nccc(-c2ccc(OC[C@@](C)(N)CC(C)C)c(CF)n2)n1 [Example 388, (S)-methyl (4-(5-((2-amino-2,4-dimethylpentyl)oxy)-6-(fluoromethyl)pyridin-2-yl)pyrimidin-2-yl)carbamate] |
